Results reported in PubChem BioAssay AID248 (DTP/NCI, 2004).
Toxic doses and inconclusive results are not listed. No stated cut-off is given here; in the data, active means T/C of 150% or more; inactive means T/C below 125%.

Tested on: L1210 leukemia ip in BDF1 mice, survival T/C
Experiment: NCI In Vivo Anticancer Drug Screen. Data for tumor model L1210 Leukemia (intraperitoneal) in B6D2F1 (BDF1) mice
Settings: endpoint: mean survival time, higher = longer survival
How it was run: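 Antitumor effect is assessed in tumor-bearing animals. Survival in the compound arm is compared with a vehicle-dosed control arm and expressed as their quotient.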

[1] = dose: 100.0 mg/kg/injection, schedule: Q04DX002 (ip), vehicle: saline with Tween-80
[2] = dose: 200.0 mg/kg/injection, schedule: Q04DX002 (ip), vehicle: saline with Tween-80
[3] = dose: 400.0 mg/kg/injection, schedule: Q04DX002 (ip), vehicle: saline with Tween-80
[4] = dose: 100.0 mg/kg/injection, schedule: Q01DX009 (ip), vehicle: saline with Tween-80
[5] = dose: 100.0 mg/kg/injection, schedule: Q04DX003 (ip), vehicle: saline with Tween-80
[6] = dose: 200.0 mg/kg/injection, schedule: Q01DX009 (ip), vehicle: saline with Tween-80
[7] = dose: 200.0 mg/kg/injection, schedule: Q04DX003 (ip), vehicle: saline with Tween-80
[8] = dose: 400.0 mg/kg/injection, schedule: Q01DX009 (ip), vehicle: saline with Tween-80
[9] = dose: 400.0 mg/kg/injection, schedule: Q04DX003 (ip), vehicle: saline with Tween-80
[10] = dose: 50.0 mg/kg/injection, schedule: Q01DX001 (ip), vehicle: saline
[11] = dose: 100.0 mg/kg/injection, schedule: Q01DX001 (ip), vehicle: saline
[12] = dose: 200.0 mg/kg/injection, schedule: Q01DX001 (ip), vehicle: saline
[13] = dose: 400.0 mg/kg/injection, schedule: Q01DX001 (ip), vehicle: saline
[14] = dose: 100.0 mg/kg/injection, schedule: Q04DX002 (ip), vehicle: Klucel (hydroxypropylcellulose) (HPC)
[15] = dose: 25.0 mg/kg/injection, schedule: Q04DX002 (ip), vehicle: saline with Tween-80
[16] = dose: 50.0 mg/kg/injection, schedule: Q04DX002 (ip), vehicle: saline with Tween-80
[17] = dose: 100.0 mg/kg/injection, schedule: Q04DX003 (ip), vehicle: saline
[18] = dose: 200.0 mg/kg/injection, schedule: Q04DX003 (ip), vehicle: saline
[19] = dose: 400.0 mg/kg/injection, schedule: Q04DX003 (ip), vehicle: saline
[20] = dose: 100.0 mg/kg/injection, schedule: Q01DX001 (ip), vehicle: carboxymethylcellulose (CMC)
[21] = dose: 200.0 mg/kg/injection, schedule: Q01DX001 (ip), vehicle: carboxymethylcellulose (CMC)

Measured: T/C

COC1OC(C[N+](=O)[O-])C(OC(C)=O)C(OC(C)=O)C1OC(C)=O (stereo unspecified)
inactive: [1] 102 % of control | [2] 109 % of control | [3] 95 % of control

Nc1nc(N)c2cc(NCc3ccccc3Cl)ccc2n1
inactive: dose: 3.12 mg/kg/injection, schedule: Q01DX009 (ip), vehicle: saline with Tween-80 111 % of control | dose: 6.25 mg/kg/injection, schedule: Q01DX009 (ip), vehicle: saline with Tween-80 103 % of control | dose: 6.25 mg/kg/injection, schedule: Q04DX003 (ip), vehicle: saline 94 % of control | dose: 12.5 mg/kg/injection, schedule: Q01DX009 (ip), vehicle: saline with Tween-80 95 % of control | dose: 12.5 mg/kg/injection, schedule: Q04DX003 (ip), vehicle: saline 102 % of control | dose: 25.0 mg/kg/injection, schedule: Q01DX001 (ip), vehicle: acetone 100 % of control

N#CCC(NC(=O)OCc1ccccc1)C(=O)OCc1ccccc1 (stereo unspecified)
inactive: [4] 98 % of control | [5] 98 % of control | [6] 96 % of control | [7] 93 % of control | [8] 86 % of control | [9] 89 % of control

CC([NH-])C(=O)[O-].[K+].[O]=[Co][O-] (stereo unspecified)
inactive: dose: 75.0 mg/kg/injection, schedule: Q01DX001 (ip), vehicle: saline 107 % of control

CCCOC(=O)Nc1cccc(OC(=O)NC)c1
inactive: [5] 105 % of control | [7] 94 % of control | [9] 96 % of control

CNc1ncccn1
inactive: [10] 109 % of control | [11] 103 % of control | [12] 107 % of control | [13] 107 % of control

NC(=O)OCCOC(N)=O
inactive: [5] 97 % of control | [7] 95 % of control | [9] 95 % of control

CCCCCCC(=O)N1CCCC(C)C1 (stereo unspecified)
inactive: [14] 98 % of control | dose: 200.0 mg/kg/injection, schedule: Q04DX002 (ip), vehicle: Klucel (hydroxypropylcellulose) (HPC) 106 % of control

CCCCC[C@H](O)/C=C/[C@H]1[C@H](O)CC(=O)[C@@H]1C/C=C\CCCC(=O)O
inactive: dose: 0.37 mg/kg/injection, schedule: Q04DX002 (ip), vehicle: Klucel (hydroxypropylcellulose) (HPC) 100 % of control | dose: 0.75 mg/kg/injection, schedule: Q04DX002 (ip), vehicle: Klucel (hydroxypropylcellulose) (HPC) 103 % of control | dose: 1.5 mg/kg/injection, schedule: Q04DX002 (ip), vehicle: Klucel (hydroxypropylcellulose) (HPC) 111 % of control | dose: 3.0 mg/kg/injection, schedule: Q04DX002 (ip), vehicle: Klucel (hydroxypropylcellulose) (HPC) 118 % of control | dose: 6.0 mg/kg/injection, schedule: Q04DX002 (ip), vehicle: Klucel (hydroxypropylcellulose) (HPC) 96 % of control | dose: 12.0 mg/kg/injection, schedule: Q04DX002 (ip), vehicle: Klucel (hydroxypropylcellulose) (HPC) 96 % of control | dose: 24.0 mg/kg/injection, schedule: Q04DX002 (ip), vehicle: Klucel (hydroxypropylcellulose) (HPC) 100 % of control | [15] 98 % of control | [16] 98 % of control | [1] 105 % of control | [2] 102 % of control | [3] 98 % of control

O=C(c1ccc(Cl)c(Cl)c1)n1c2ccccc2c2ccccc21
inactive: [17] 102 % of control | [18] 100 % of control | [19] 100 % of control

CC(C)=CCOC1=CC(=O)C(=O)c2ccccc21
inactive: [15] 87 % of control | dose: 25.0 mg/kg/injection, schedule: Q04DX003 (ip), vehicle: saline with Tween-80 94 % of control | [16] 95 % of control | dose: 50.0 mg/kg/injection, schedule: Q04DX003 (ip), vehicle: saline with Tween-80 93 % of control | [1] 95 % of control | [5] 99 % of control

CCCCC(CCN1CCCC1)(CNC(=O)CN(CC)CC)c1cccc2ccccc12 (stereo unspecified)
inactive: dose: 25.0 mg/kg/injection, schedule: Q01DX009 (ip), vehicle: saline 94 % of control | dose: 25.0 mg/kg/injection, schedule: Q04DX002 (ip), vehicle: Klucel (hydroxypropylcellulose) (HPC) 103 % of control | dose: 50.0 mg/kg/injection, schedule: Q01DX009 (ip), vehicle: saline 102 % of control | dose: 50.0 mg/kg/injection, schedule: Q04DX002 (ip), vehicle: Klucel (hydroxypropylcellulose) (HPC) 100 % of control | [14] 107 % of control

Cc1nc2ccc(N(C)C)cc2c2c1Cc1c(C)nc3ccc(N(C)C)cc3c1O2
inactive: [4] 95 % of control | [6] 92 % of control | [8] 110 % of control

Cn1nc(C(=O)O)c2c(N)ncnc21
inactive: dose: 50.0 mg/kg/injection, schedule: Q04DX002 (ip), vehicle: saline 103 % of control | dose: 100.0 mg/kg/injection, schedule: Q04DX002 (ip), vehicle: saline 95 % of control | dose: 200.0 mg/kg/injection, schedule: Q04DX002 (ip), vehicle: saline 98 % of control

CC1(C)N=C(N)N=C(N)N1c1ccc(CC(C(=O)Nc2cccc(S(=O)(=O)F)c2)c2ccccc2)cc1 (stereo unspecified)
inactive: dose: 25.0 mg/kg/injection, schedule: Q01DX001 (ip), vehicle: saline 105 % of control | [10] 106 % of control | dose: 87.5 mg/kg/injection, schedule: Q01DX001 (ip), vehicle: saline 94 % of control | [11] 97 % of control

O=C(Nc1ccc2c(c1)C(S)c1ccccc1-2)C(F)(F)F (stereo unspecified)
inactive: [20] 96 % of control | [21] 101 % of control | dose: 400.0 mg/kg/injection, schedule: Q01DX001 (ip), vehicle: carboxymethylcellulose (CMC) 95 % of control

CCOC(=O)/C(C(=O)c1ccccc1)=C(\OC(=O)c1ccccc1)c1ccccc1
inactive: dose: 50.0 mg/kg/injection, schedule: Q01DX001 (ip), vehicle: carboxymethylcellulose (CMC) 96 % of control | [20] 102 % of control | [21] 91 % of control

C=CC[n+]1cccc(S(=O)(=O)[O-])c1
inactive: [17] 101 % of control | [18] 98 % of control | [19] 103 % of control

C=CCOC(=O)Nc1ccc(S(=O)(=O)NC2CCCCC2)cc1
inactive: [11] 92 % of control | [12] 94 % of control | [13] 97 % of control
